The target of experiment [1] is GCN2 kinase (Homo sapiens (Human), UniProt Q9P2K8). Kind of experiment: Biochemical assay for GCN2 (TR-FRET kinase activity assay). Particulars: 1 mM ATP, 3-hour incubation. The method in brief:
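TR-FRET assay with 2 nM GCN2, 130 nM GFP-eIF2α substrate, 0.2 mg/mL E. coli tRNA and 1 mM ATP; compounds (0.5% DMSO) reacted 3 h. Stopped with 20 mM EDTA plus 2 nM Tb-anti-peIF2α (pSer52), 60 min RT; 520/490 ratio converted to % inhibition, IC50 from four-parameter fit.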
In general terms: In TR-FRET formats the signal depends on donor and acceptor labels being close together.

The target of experiment [2] is PERK kinase (Homo sapiens (Human), UniProt Q9NZJ5). Kind of experiment: Biochemical assay for PERK (coupled pyruvate kinase/lactate dehydrogenase assay). The conditions noted are these: 1 mM ATP, rate from 2-3 h time frame. The method in brief: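 Coupled pyruvate kinase/lactate dehydrogenase readout of ATP hydrolysis via NADH oxidation (A340), 10 nM PERK, 0.25 mg/mL myelin basic protein, 1 mM ATP, pH 7.5 Tris/MgCl2 buffer, 1% DMSO. Absorbance followed 6 h at 30° C; rate from the 2-3 h window, normalised to no-compound and known-inhibitor controls, IC50 fitted.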
PERK kinase, sequence (Q9NZJ5 other isoform, or with tags, fused parts or gaps): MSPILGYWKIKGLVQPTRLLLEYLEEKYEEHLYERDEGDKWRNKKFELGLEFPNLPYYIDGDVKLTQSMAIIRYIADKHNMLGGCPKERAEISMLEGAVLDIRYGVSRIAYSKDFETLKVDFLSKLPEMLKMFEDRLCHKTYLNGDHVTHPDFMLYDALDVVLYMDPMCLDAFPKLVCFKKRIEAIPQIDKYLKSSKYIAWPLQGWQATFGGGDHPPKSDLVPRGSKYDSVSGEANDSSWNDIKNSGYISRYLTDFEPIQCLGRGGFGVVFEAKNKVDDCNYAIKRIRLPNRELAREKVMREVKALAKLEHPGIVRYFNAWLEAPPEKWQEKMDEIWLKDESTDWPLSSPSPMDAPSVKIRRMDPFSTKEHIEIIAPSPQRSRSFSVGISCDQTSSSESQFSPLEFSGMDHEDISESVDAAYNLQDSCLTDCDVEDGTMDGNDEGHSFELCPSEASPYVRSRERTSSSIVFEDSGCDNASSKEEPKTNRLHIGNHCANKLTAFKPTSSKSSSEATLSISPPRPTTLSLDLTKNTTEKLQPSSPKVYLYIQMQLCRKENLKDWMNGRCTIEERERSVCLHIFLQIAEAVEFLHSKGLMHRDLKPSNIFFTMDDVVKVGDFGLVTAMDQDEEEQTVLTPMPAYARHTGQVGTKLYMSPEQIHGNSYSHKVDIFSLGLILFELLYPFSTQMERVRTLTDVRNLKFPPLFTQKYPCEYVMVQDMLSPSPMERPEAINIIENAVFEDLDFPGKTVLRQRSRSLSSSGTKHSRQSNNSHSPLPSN

For experiment [3], the system named is ATF4 in H929 multiple myeloma cells. Briefly: H929 ATF4 ELISA assay (stimulation of cellular ATF4). Type of experiment: cell-based. Particulars: 4 h, no thapsigargin. On the procedure: H929 multiple myeloma cells (catalog #CRL-9068) were obtained from the American Type Culture Collection (ATTC, Manassas, VA). Briefly, cells were grown in RPMI-1640 medium supplemented with 20% heat-inactivated fetal bovine serum (catalog #A3840002, ThermoFisher Scientific, Waltham, MA), 1% Penicillin/Streptomycin/L-Glutamine (catalog #10378016, ThermoFisher Scientific, Waltham, MA), and 0.05 mM 2-mercaptoethanol (catalog #21985-023, ThermoFisher Scientific, Waltham, MA) at 37° C., 5% CO2, and 95% humidity. Cells were expanded until reaching one million five hundred thousand cells per mL at which time they were subcultured or harvested for assay use. One million five hundred thousand cells per well in 1 mL complete growth medium were dispensed into 12-well plates and incubated overnight. A serial dilution of test compound was added, and cells were incubated at 37° C., 5% CO2, and 95% for four hours. Cells were lysed then ATF4 levels were measured using an ELISA assay (Proteintech, Rosemont, IL). Absorbance is measured at 450 nm and 544 nM using a Synergy2 or equivalent reader (Biotek, Winooski VT). Data were analyzed using PRISM software (Graphpad, San Diego, CA) to calculate fold stimulation of cellular ATF4 relative to vehicle treated control.

Experiment [4] relates to CCRF-CEM leukemia cells. Briefly: CCRF-CEM ASNase cell proliferation assay, phenotypic assay for cellular inhibition of GCN2. Type of experiment: cell-based. Particulars: Homo sapiens; ASNase treated CCRF-CEM cells, 1 mU/mL ASNase, 72 h. The method in brief:
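Cells were seeded at ten thousand per well in RPMI-1640 with 10% heat-inactivated FBS and treated in triplicate with serially diluted compound plus 1 mU/mL ASNase for 72 h at 37 °C, 5% CO2. Resazurin was then added for 6 h, with fluorescence read at ex 540/em 600 nm to derive IC50 values.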

Experiment [5] concerns phospho-GCN2 (Thr899) in HCT116 colorectal cancer cells. Briefly: HCT116 amino acid starved (-AA) phospho-GCN2 assay (Western blot). Type of experiment: cell-based. The conditions noted are these: Homo sapiens, HCT-116, 4 h, read-out: HCT116-AA pGCN2 Western Blot. The method, boiled down: (§1)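 HCT116 cells switched to amino-acid-free EBSS (10% dialyzed FBS, 5.5 mM glucose, vitamins) with serial compound dilutions for 4 h at 37° C. Lysates Western blotted for phospho-GCN2 (Thr899), total GCN2, ATF4 and beta-actin; IC50 values derived from quantified bands.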

Experiment [6] relates to ATF4 in HCT116 colorectal cancer cells. Kind of experiment: HCT116 amino acid starved (-AA) ATF4 assay (Western blot). The format is cell-based. The conditions noted are these: Homo sapiens, HCT-116, 4 h. The method, boiled down:
as §1
In general terms: Immunoblotting shows a protein as a band on a membrane.

For experiment [7], the system named is ATF4 in CCRF-CEM leukemia cells (PERK). Briefly: CCRF-CEM TG ATF4 ELISA, phenotypic assay for cellular inhibition of PERK preactivated by thapsigargin. Type of experiment: cell-based. Particulars: Homo sapiens; Thapsigargin (1 μM) stimulated CCRF-CEM cells. In general terms: ELISA stands for enzyme-linked immunosorbent assay.

Molecules are shown by their SMILES. pIC50: −log10 of the molar value.

GCN2 kinase, sequence (Q9P2K8 whole entry): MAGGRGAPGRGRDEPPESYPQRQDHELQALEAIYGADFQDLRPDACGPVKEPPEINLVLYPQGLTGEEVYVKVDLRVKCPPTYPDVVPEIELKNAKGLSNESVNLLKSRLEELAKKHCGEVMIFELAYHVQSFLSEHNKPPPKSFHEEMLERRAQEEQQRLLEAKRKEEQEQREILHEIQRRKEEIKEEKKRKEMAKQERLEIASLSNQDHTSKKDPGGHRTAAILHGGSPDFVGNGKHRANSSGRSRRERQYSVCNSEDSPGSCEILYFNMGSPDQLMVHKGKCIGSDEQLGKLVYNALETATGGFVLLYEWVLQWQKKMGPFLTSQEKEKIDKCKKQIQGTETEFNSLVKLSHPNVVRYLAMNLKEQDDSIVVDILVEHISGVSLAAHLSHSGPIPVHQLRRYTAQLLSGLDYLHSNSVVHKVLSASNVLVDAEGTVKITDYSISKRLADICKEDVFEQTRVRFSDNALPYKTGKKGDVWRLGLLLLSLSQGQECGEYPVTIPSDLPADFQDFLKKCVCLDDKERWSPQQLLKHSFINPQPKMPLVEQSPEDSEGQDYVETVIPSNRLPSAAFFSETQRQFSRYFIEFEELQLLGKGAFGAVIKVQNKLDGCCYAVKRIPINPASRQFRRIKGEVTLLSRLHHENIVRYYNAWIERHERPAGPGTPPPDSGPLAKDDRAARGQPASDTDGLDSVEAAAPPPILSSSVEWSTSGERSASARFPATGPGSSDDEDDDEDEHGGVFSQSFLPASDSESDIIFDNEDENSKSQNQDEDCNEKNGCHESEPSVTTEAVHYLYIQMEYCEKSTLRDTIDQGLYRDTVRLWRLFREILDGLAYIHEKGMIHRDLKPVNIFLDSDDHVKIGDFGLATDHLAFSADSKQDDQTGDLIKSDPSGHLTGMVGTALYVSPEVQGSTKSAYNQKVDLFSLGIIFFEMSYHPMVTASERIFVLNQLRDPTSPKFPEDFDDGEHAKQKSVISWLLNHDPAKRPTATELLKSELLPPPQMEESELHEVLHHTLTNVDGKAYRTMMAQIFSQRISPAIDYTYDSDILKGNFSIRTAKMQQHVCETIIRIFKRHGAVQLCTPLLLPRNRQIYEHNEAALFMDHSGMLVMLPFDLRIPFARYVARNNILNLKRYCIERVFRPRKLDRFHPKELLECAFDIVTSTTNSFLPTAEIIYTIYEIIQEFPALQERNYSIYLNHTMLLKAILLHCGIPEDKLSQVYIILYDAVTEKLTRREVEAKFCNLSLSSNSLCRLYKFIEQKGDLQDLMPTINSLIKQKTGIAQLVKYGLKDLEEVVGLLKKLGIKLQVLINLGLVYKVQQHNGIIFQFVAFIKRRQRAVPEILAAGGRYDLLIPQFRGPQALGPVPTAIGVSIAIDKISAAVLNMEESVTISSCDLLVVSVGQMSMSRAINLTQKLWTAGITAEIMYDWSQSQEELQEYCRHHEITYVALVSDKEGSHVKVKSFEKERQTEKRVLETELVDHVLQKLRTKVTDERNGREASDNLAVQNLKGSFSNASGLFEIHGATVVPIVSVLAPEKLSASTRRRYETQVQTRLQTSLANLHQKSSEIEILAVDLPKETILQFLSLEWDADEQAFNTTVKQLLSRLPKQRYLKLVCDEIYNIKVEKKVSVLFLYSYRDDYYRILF

Turning to `CNc1ncc2cc(-c3cccc(NS(=O)(=O)c4cc(Cl)cnc4OC)c3C(F)(F)F)ccc2n1` [Example 79], the pIC50 in experiment [1] and in experiment [2] was 6.30 to 7.00 throughout. Moreover, in experiment [3], the “H929 NS ATF4 ELISA (fold stimulation of ATF4 relative to vehicle)” value was “+++ (“+++” refers to an ATF4 stim greater than 10 fold and less than or equal to 20 fold)”.

With `COc1ncc(Cl)cc1S(=O)(=O)Nc1cc(F)cc(-c2cnc3nc(N)ncc3c2)c1` [Example 86], the pIC50 in experiment [1] and in experiment [2] was 5.00 to 6.00 throughout. For the same molecule, the “H929 NS ATF4 ELISA (fold stimulation of ATF4 relative to vehicle)” value in experiment [3] is “+++ (“+++” refers to an ATF4 stim greater than 10 fold and less than or equal to 20 fold)”.

In the case of `COc1nc2nc(N)ncc2cc1-c1cc(F)cc(NS(=O)(=O)c2cc(Cl)cnc2OC)c1` [Example 93], the pIC50 is at least 7.00 in experiment [1]; 6.30 to 7.00 in experiment [2]; 6.30 to 7.00 in experiment [4]; at least 7.00 in experiment [5]; 6.30 to 7.00 in experiment [6]; 5.00 to 6.00 in experiment [7].

Regarding `CNc1ncc2cc(-c3cccc(NS(=O)(=O)c4cc(Cl)cnc4OC)c3C#N)c(C)nc2n1` [Example 95], the pIC50 in experiment [1] is at least 7.00; in experiment [2], 6.30 to 7.00; in experiment [4], 6.30 to 7.00; in experiment [5] it was at least 7.00; in experiment [6] it was 6.30 to 7.00; in experiment [7], 5.00 to 6.00.

Take `CNc1nc2nc(N)ncc2cc1-c1cc(F)cc(NS(=O)(=O)c2cc(Cl)cnc2OC)c1` [Example 96]: the pIC50 was at least 7.00 in experiment [1]; 6.30 to 7.00 in experiment [2]; 6.30 to 7.00 in experiment [4]; at least 7.00 in experiment [5]; 6.30 to 7.00 in experiment [6]; 5.00 to 6.00 in experiment [7].

In the case of `CNc1ncc2cc(-c3cccc(NS(=O)(=O)c4cc(Cl)cnc4OC)c3F)c(NCCO)nc2n1` [Example 97], the pIC50 was at least 7.00 in experiment [1]; 6.30 to 7.00 in experiment [2]; at least 7.00 in experiment [4]; at least 7.00 in experiment [5]; 6.30 to 7.00 in experiment [6]; 5.00 to 6.00 in experiment [7].

With `CNc1ncc2cc(-c3cccc(NS(=O)(=O)c4cc(Cl)cnc4OC)c3F)c(NCCOC)nc2n1` [Example 100], the pIC50 in experiment [1] was at least 7.00; in experiment [2], 6.30 to 7.00; in experiment [4] it was at least 7.00; in experiment [5] it was at least 7.00; in experiment [6] it was at least 7.00; in experiment [7], 5.00 to 6.00.

For `CNc1ncc2cc(-c3cccc(NS(=O)(=O)c4cc(Cl)cc(C(=O)OC)c4Cl)c3F)c(NC)nc2n1` [Example 102], the pIC50 was at least 7.00 in experiment [1]; 6.30 to 7.00 in experiment [2]; at least 7.00 in experiment [4]; at least 7.00 in experiment [5]; at least 7.00 in experiment [6]; 5.00 to 6.00 in experiment [7].

As for `CNc1nc2nc(NC3CC3)ncc2cc1-c1cccc(NS(=O)(=O)c2cc(Cl)cnc2OC)c1F` [Example 111], the pIC50 in experiment [1] was at least 7.00; in experiment [2], 6.30 to 7.00; in experiment [4] it was 6.30 to 7.00; in experiment [5], 6.30 to 7.00; in experiment [6] it was at least 7.00; in experiment [7], 5.00 to 6.00.

For `CNc1cc2nc(NC)c(-c3cccc(NS(=O)(=O)c4cc(Cl)cnc4OC)c3Cl)cc2cn1` [Example 113], the pIC50 in experiment [1] is 6.30 to 7.00; in experiment [2], 6.30 to 7.00; in experiment [4], at least 7.00; in experiment [5], at least 7.00; in experiment [6], 6.30 to 7.00; in experiment [7], 6.00 to 6.30.

As to `CNc1cc2nc(NC)c(-c3cccc(NS(=O)(=O)c4cc(Cl)cnc4OC)c3F)cc2cn1` [Example 114], the pIC50 in experiment [1] was at least 7.00; in experiment [2] it was at least 7.00; in experiment [4], at least 7.00; in experiment [5], at least 7.00; in experiment [6], 6.30 to 7.00; in experiment [7] it was 5.00 to 6.00.

With `CCNc1ncc2cc(-c3cccc(NS(=O)(=O)c4cc(Cl)cnc4OC)c3F)c(NC)nc2n1` [Example 115], the pIC50 in experiment [1] is at least 7.00; in experiment [2], at least 7.00; in experiment [4], at least 7.00; in experiment [5], at least 7.00; in experiment [6] it was at least 7.00; in experiment [7], 5.00 to 6.00.

Take `CNc1nc2nc(NC(C)C)ncc2cc1-c1cccc(NS(=O)(=O)c2cc(Cl)cnc2OC)c1F` [Example 117]: the pIC50 was at least 7.00 in experiment [1]; 6.30 to 7.00 in experiment [2]; 6.30 to 7.00 in experiment [4]; 6.30 to 7.00 in experiment [5]; 6.30 to 7.00 in experiment [6]; 5.00 to 6.00 in experiment [7].

With `COc1ncc(Cl)cc1S(=O)(=O)Nc1cccc(-c2cc3cnc(N)cc3nc2C)c1Cl` [Example 121], the pIC50 in experiment [1] is at least 7.00; in experiment [2], at least 7.00; in experiment [4], at least 7.00; in experiment [5] it was at least 7.00; in experiment [6], at least 7.00; in experiment [7], 6.30 to 7.00.

Consider `CNc1cc2nc(C)c(-c3cccc(NS(=O)(=O)c4cc(Cl)cnc4OC)c3Cl)cc2cn1` [Example 127], for which the pIC50 in experiment [1] was at least 7.00; in experiment [2], at least 7.00; in experiment [4], at least 7.00; in experiment [5], at least 7.00; in experiment [6], at least 7.00; in experiment [7], 6.00 to 6.30.

As to `CNc1cc2nc(OC)c(-c3cccc(NS(=O)(=O)c4cc(Cl)cnc4OC)c3F)cc2cn1` [Example 129], the pIC50 in experiment [1] was at least 7.00; in experiment [2], at least 7.00; in experiment [4], at least 7.00; in experiment [5] it was at least 7.00; in experiment [6] it was at least 7.00; in experiment [7], 5.00 to 6.00.

Turning to `CNc1ncc2cc(-c3cccc(NS(=O)(=O)c4cc(Cl)c(OC)cc4Cl)c3F)c(NC)nc2n1` [Example 132], the pIC50 in experiment [1] was at least 7.00; in experiment [2], at least 7.00; in experiment [4] it was at least 7.00; in experiment [5] it was at least 7.00; in experiment [6] it was at least 7.00; in experiment [7], 6.00 to 6.30.

`COc1nc2nc(N)ncc2cc1-c1ccnc(NS(=O)(=O)c2cc(Cl)cnc2OC)c1F` [Example 135]: the pIC50 in experiment [1] is at least 7.00; in experiment [2] it was 6.30 to 7.00; in experiment [4], 6.00 to 6.30; in experiment [5], 6.30 to 7.00; in experiment [6], 5.00 to 6.00; in experiment [7], 5.00 to 6.00.

With `CNc1ncc2cc(-c3ccnc(NS(=O)(=O)c4cc(Cl)cnc4OC)c3F)c(OC)nc2n1` [Example 136], the pIC50 in experiment [1] is at least 7.00; in experiment [2] it was 6.30 to 7.00; in experiment [4], 6.30 to 7.00; in experiment [5], at least 7.00; in experiment [6], 6.30 to 7.00; in experiment [7], 5.00 to 6.00.

With `CNc1ncc2cc(-c3cccc(NS(=O)(=O)c4cc(Cl)cnc4NC4CC4)c3F)c(NC)nc2n1` [Example 137], the pIC50 was at least 7.00 in experiment [1]; 6.30 to 7.00 in experiment [2]; at least 7.00 in experiment [4]; at least 7.00 in experiment [5]; at least 7.00 in experiment [6]; 5.00 to 6.00 in experiment [7].

As for `CNc1cc2nc(C)c(-c3cc(NS(=O)(=O)c4cc(Cl)cnc4OC)cc(F)c3F)cc2cn1` [Example 143], the pIC50 in experiment [1] is at least 7.00; in experiment [2] it was at least 7.00; in experiment [4] it was at least 7.00; in experiment [5], at least 7.00; in experiment [6], at least 7.00; in experiment [7] it was 5.00 to 6.00.

With `CNc1ncc2cc(-c3cccc(NS(=O)(=O)c4cc(Cl)ccc4OC)c3F)c(NC)nc2n1` [Example 148], the pIC50 was at least 7.00 in experiment [1]; at least 7.00 in experiment [2]; at least 7.00 in experiment [4]; at least 7.00 in experiment [5]; at least 7.00 in experiment [6]; 5.00 to 6.00 in experiment [7].

`CNc1nc2nc(NC(C)=O)ncc2cc1-c1cccc(NS(=O)(=O)c2cc(Cl)cnc2OC)c1F` [Example 158]: the pIC50 is at least 7.00 in experiment [1]; 6.30 to 7.00 in experiment [2]; at least 7.00 in experiment [4]; at least 7.00 in experiment [5]; at least 7.00 in experiment [6]; 5.00 to 6.00 in experiment [7].
